{
  "source": "patent USRE50049E1",
  "about": "“Compositions and methods for treating psoriasis” (SYMBIONYX PHARMACEUTICALS INC, priority 2015, dated 2024)",
  "key": {"[1]": {"test_system": "stratum granulosum (StGrm) coverage of mouse tail epidermis", "test": "Murine tail model of psoriasis", "assay_type": "in vivo", "conditions": "2 weeks of application", "description": "The mouse tail test is a well-established animal model used for the development of FDA-approved anti-psoriasis drugs. Table 6 summarize the findings following 2 weeks of test material application on the tails, with the readout of improvement in stratum granulosum (StGrm) coverage +/− side effects.\nThe arrow in each photomicrograph points to the StGrm (stratum granulosum), which, as noted, is minimal in the control."}, "[2]": {"test_system": "TNF α-treated human dermal fibroblasts (HDF)", "test": "PCR gene expression in TNF α-treated human dermal fibroblasts", "assay_type": "cell-based", "conditions": "24 hours, TNF-alpha 10 ng/ml"}, "[3]": {"conditions": "cited from earlier work"}, "[4]": {"test_system": "S. typhimurium (TA1535, TA1537)", "test": "AMES genotoxicity testing, overall conclusion (TA1535, TA1537)", "conditions": "including at the highest concentration required for testing (5 mg/ml)"}, "3T3": {"test_system": "3T3", "test": "3T3 Neutral Red Uptake Phototoxicity Assay", "assay_type": "cell-based", "conditions": "even at the maximum concentration required for testing (100 μg/ml)", "description": "The 3T3 Neutral Red Uptake Phototoxicity Assay was based on the OECD Guideline for Testing of Chemicals: […], with chlorpromazine and tazarotene as positive controls."}, "[5]": {"test_system": "skin of healthy adult volunteers", "test": "Human repeat insult patch test (HRIPT)", "conditions": "IDMF 2% and 5% in butylene glycol/glycerin base"}, "S. typhimurium TA1537": {"test_system": "S. typhimurium TA1537", "conditions": "% of mutant colonies spontaneously occurring in water control"}, "[6]": {"test_system": "psoriasiform keratinocytes (epidermal keratinocyte progenitors incubated with IL-17A/IL-22/TNFα)", "test": "DNA microarray gene expression in psoriasiform keratinocyte cultures", "assay_type": "cell-based, human", "conditions": "IDMF added after 24 h cytokine treatment, further 24 h", "procedure": "Psoriasiform keratinocyte cultures were established by incubating epidermal keratinocyte progenitors from stratum basae (Zen-Bio, RTP, NC) with IL-17A/IL-22/TNFα ([…]) for 24 h. These cytokines have been reported to be key triggers in psoriasis (Y Tokura, T Mori, R Hino, Psoriasis and other Th17-mediated skin diseases. J UOEH, 32(4):317-328, 2010; A B Van Belle, M de Heusch, M M Lemaire, E Hendrickx, G Wamier, K Dunussi-Joannopoulos, L A Fouser, J C Renauld, L Dumoutier, IL-22 is required for imiquimod-induced psoriasiform skin inflammation in mice, J Immunol, 188(1):462-469, 2012; A Hänsel, C Günther, J Ingwersen, J Starke, M Schmitz, M Bachmann, M Meurer, E P Rieber, K Schäkel, Human slan (6-sulfo LacNAc) dendritic cells are inflammatory dermal dendritic cells in psoriasis and drive strong TH17/TH1 T-cell responses, J Allergy Clin Immunol, 127(3):787-794, 2011; Kim J, Krueger J G. The Immunopathogenesis of Psoriasis, Dermatol Clin, 33:13-23, 2015). […]\nAfter 24 h of cytokine treatment, the IDMF test materials were added to cells and further incubation with IL-17A/IL-22/TNFα was pursued for another 24 h. At the end of the experiment total RNA was extracted from keratinocytes and quantified using DNA microarrays. […]"}, "S. typhimurium TA1535": {"test_system": "S. typhimurium TA1535", "conditions": "% of mutant colonies spontaneously occurring in water control"}, "[7]": {"conditions": "primary metabolite after oral administration of dimethyl fumarate; cited from earlier work"}, "[8]": {"conditions": "Lammintausta et al., Contact Dermatitis 2010; cited from earlier work"}, "[9]": {"conditions": "mouse tail, IDMF 2%, Tazorac 0.1% tazarotene"}},
  "note": "Entries after “also recorded” stand apart in the source; their conditions may differ. Where a name gives a salt, the structure may show the parent alone. Read-outs that look alike come from different tables or passages of the source.",
  "data": [
    {"smiles": "CCOC(=O)c1ccc(C#Cc2ccc3c(c2)C(C)(C)CCS3)nc1", "note": "[tazarotene, reference compound]", "values": [
      {"measurement": "adverse effects in mouse tail test", "setting": "[1]; positive control", "result": "substantial hyperkeratosis, spongiosis and wide-spread inflammation"}
    ]},
    {"smiles": "COC(=O)/C=C/C(=O)OC", "note": "[DMF, Dimethyl fumarate, reference compound]", "values": [
      {"measurement": "NFKB expression", "setting": "[2]; DMF 5 μg/ml", "result": "decreased"},
      {"measurement": "protein binding", "setting": "[3]", "result": "does not display protein binding"}
    ]},
    {"smiles": "COC(=O)/C=C/C(=O)OC1COC2C(OC(=O)/C=C/C(=O)OC)COC12", "note": "(centres unmarked) [IDMF, isosorbide di-(methylfumarate)]", "values": [
      {"measurement": "genotoxicity (AMES)", "setting": "[4]", "result": "not genotoxic"},
      {"measurement": "phototoxicity", "setting": "3T3", "result": "not phototoxic"},
      {"measurement": "conclusion of the HRIPT study", "setting": "[5]", "result": "non-sensitizing and non-irritating"},
      {"measurement": "participants with score zero", "setting": "[5]; 100 healthy adult volunteers", "result": 100, "unit": "%"},
      {"measurement": "skin sensitization/irritation score (scale 0-5)", "setting": "[5]; 100 healthy adult volunteers", "result": 0},
      {"measurement": "flushing", "setting": "[5]; topical patch", "result": "no flushing was observed"},
      {"measurement": "COX-2 expression", "setting": "[2]; IDMF 1 μg/ml", "result": "−2.4", "unit": "fold"},
      {"measurement": "IL8 expression", "setting": "[2]; IDMF 1 μg/ml", "result": "did not increase"},
      {"measurement": "NFKB expression", "setting": "[2]; IDMF 1 μg/ml", "result": "decreased"},
      {"measurement": "% CTR (TA1537)", "setting": "S. typhimurium TA1537; 8 μg/ml", "result": 83, "unit": "% CTR"},
      {"measurement": "% CTR (TA1537)", "setting": "S. typhimurium TA1537; 40 μg/ml", "result": 117, "unit": "% CTR"},
      {"measurement": "% CTR (TA1537)", "setting": "S. typhimurium TA1537; 200 μg/ml", "result": 91, "unit": "% CTR"},
      {"measurement": "% CTR (TA1537)", "setting": "S. typhimurium TA1537; 1 mg/ml", "result": 30, "unit": "% CTR"},
      {"measurement": "% CTR (TA1537)", "setting": "S. typhimurium TA1537; 5 mg/ml", "result": 13, "unit": "% CTR"},
      {"measurement": "TNFα/IFNγ/IL-17 responses (DNA microarray)", "setting": "[6]", "result": "significant inhibition"},
      {"measurement": "antioxidant pathways, especially those related to glutathione (DNA microarray)", "setting": "[6]", "result": "upregulated"},
      {"measurement": "% CTR (TA1535)", "setting": "S. typhimurium TA1535; 8 μg/ml", "result": 96, "unit": "% CTR"},
      {"measurement": "% CTR (TA1535)", "setting": "S. typhimurium TA1535; 40 μg/ml", "result": 89, "unit": "% CTR"},
      {"measurement": "% CTR (TA1535)", "setting": "S. typhimurium TA1535; 200 μg/ml", "result": 68, "unit": "% CTR"},
      {"measurement": "% CTR (TA1535)", "setting": "S. typhimurium TA1535; 1 mg/ml", "result": 64, "unit": "% CTR"},
      {"measurement": "% CTR (TA1535)", "setting": "S. typhimurium TA1535; 5 mg/ml", "result": 18, "unit": "% CTR"},
      {"measurement": "Tail observations: epidermal thickness", "setting": "[1]; mouse tail, IDMF 2% in butylene glycol/glycerin, Tazorac 0.1% tazarotene, control 3-4 layers", "result": "thickness (4-5 layers),"},
      {"measurement": "Tail observations: granular layer (StGrm)", "setting": "[1]; [9]", "result": "significant extension of StGrm coverage; also recorded: extended granular layer"},
      {"measurement": "Tail observations: inflammatory (leukocyte) infiltrate", "setting": "[1]; [9]", "result": "no inflammation; also recorded: no inflammatory infiltrate,"},
      {"measurement": "Tail observations: stratum corneum (StCr)", "setting": "[1]; [9]", "result": "normal basketwave StCr,"},
      {"measurement": "StGrm expansion", "setting": "[1]; mouse tail, control (no treatment) = 100, IDMF 2% in butylene glycol/glycerin, Tazorac 0.1% tazarotene, p < 0.0001", "result": "134 (p < 0.0001)"}
    ]},
    {"smiles": "COC(=O)/C=C/C(=O)O", "note": "[MMF, monomethyl fumarate]", "values": [
      {"measurement": "half-life", "setting": "[7]", "result": 36, "unit": "h"},
      {"measurement": "skin sensitization", "setting": "[8]", "result": "known skin sensitizers"},
      {"measurement": "protein binding (bound)", "setting": "[3]", "result": "approximately 50%"}
    ]}
  ]
}
